As a reminder, the IC50 is the concentration that inhibits the measured activity by half. A word on the melting point: it is the temperature of the solid-liquid transition.

Read-outs that look alike come from different tables or passages of the source.

The values below come from paper PMC6264390, “Design, Synthesis and Structure-activity Studies of Rhodanine Derivatives as HIV-1 Integrase Inhibitors” (Molecules, 2010).

In one data set the target is T1, HIV-1 IN (Human immunodeficiency virus type 1 group M subtype B, UniProt P12497).
T1 construct: pre-incubated with purified recombinant IN (at a final concentration of 200 nM); made in house
Briefly: In vitro IN inhibition assay (3’-processing and strand transfer). Type of data set: biochemical. The following applies: for IC50: Mn2+ cofactor (7.5 mM MnCl2). The method, then:
(§1) All compounds were dissolved in DMSO to a final stock concentration of 10 mM and stored at −20 °C. Initial screening for IN inhibitory effect was done at 100 μM and dilutions were made in DMSO. Compounds showing at least 50% inhibition at 100 μM were selected for IC50 determinations. γ-[^32P]-ATP was purchased from Perkin Elmer (Waltham, MA, USA). The expression system for wild-type IN was a generous gift of Dr. Robert Craigie, Laboratory of Molecular Biology, NIDDK, NIH (Bethesda, MD, USA). His-tagged APE1 was purified from an expression system kindly provided by Dr. Tom Curran, Department of Developmental Neurobiology, St. Jude Children’s Research Hospital (Memphis, TN, USA).
(§2) 21-mer oligonucleotides used in IN inhibition assay [21top (5’-[…]-3’) and 21bot (5’-ACTGCTAGAGATTTTCCA CAC-3’)] were purchased from Integrated DNA Technologies (Coralville, IA, USA) and purified by UV shadowing on polyacrylamide gel. The oligonucleotides used in APE1 inhibition assay [top strand: 5′-ATTTCACCGGTACG(F)TCTAGAATC CG-3′ containing the tetrahydrofuran synthetic abasic residue (F), and bottom strand: 3′-TAAAGTGG CCATGC(C)AGATCTTAGGC-5′] were purchased from The Midland Certified Reagent Company (Midland, TX, USA). To analyze the extent of 3’-processing and strand transfer with 5’-end labeled substrates, 21top was 5’-end labeled using T4 polynucleotide kinase (Epicentre, Madison, WI, USA) and [γ-^32P]-ATP (Perkin Elmer, Waltham, MA, USA). The kinase was heat-inactivated at 95 °C and 21bot was added in […]. The reaction mixture was allowed to cool slowly to room temperature, and purified through a spin-25 minicolumn (USA Scientific, Ocala, FL, USA) to separate annealed double-stranded oligonucleotide from unincorporated material. The oligonucleotides used in the APE1 inhibition assay were labeled using a similar protocol.
To determine the extent of 3’-processing and strand transfer, the test compounds, diluted in DMSO, were pre-incubated with purified recombinant IN (at a final concentration of 200 nM) in the reaction buffer [50 mM NaCl, 1 mM HEPES (pH 7.5), 50 μM EDTA, 50 μM dithiothreitol, 10% glycerol (w/v), 7.5 mM MnCl2, 0.1 mg mL–1 bovine serum albumin, 10 mM 2-mercaptoethanol, 10% dimethyl sulfoxide, and 25 mM MOPS (pH 7.2)] at 30 °C for 30 min. For Mg^2+ assay, 7.5 mM MgCl2 was substituted for MnCl2 and an optimal concentration of PEG was included in the reaction buffer. Following the pre-incubation, 20 nM of the 5’-end ^32P-labeled linear oligonucleotide substrate was added to the reaction mixture and incubated for an additional 1 h. Reactions were quenched by addition of 50X loading dye (98% deionized formamide, 10 mM EDTA, 0.025% xylene cyanol, and 0.025 % bromophenol blue). An aliquot was subjected to electrophoresis on a denaturing polyacrylamide gel (0.09 M tris–borate, pH 8.3, 2 mM EDTA, 20% acrylamide, 8M urea). Gels were dried under vacuum, exposed in a PhosphorImager cassette and visualized with a Typhoon 8610 Variable Mode Imager (Amersham Biosciences). Quantification was done with Image Quant 5.2 software. Percent inhibition (%I) was calculated using the following equation: %I = 100 × [1 − (D − C) / (N − C)] where C, N, and D are the fractions of 21-mer substrate converted into 19-mer (product of 3’-processing) or strand-transfer products for DNA alone, DNA plus IN, and DNA, IN plus test compound, respectively. IC50 values were determined by plotting the logarithm of test compound concentrations as a function of %I to obtain the concentration that produced 50% inhibition.

For data set [1], the target named is T2, human apurinic/apyrimidinic endonuclease 1 (APE1) (Homo sapiens, UniProt P27695).
T2 construct: His; made in house
T2 sequence (P27695 whole entry): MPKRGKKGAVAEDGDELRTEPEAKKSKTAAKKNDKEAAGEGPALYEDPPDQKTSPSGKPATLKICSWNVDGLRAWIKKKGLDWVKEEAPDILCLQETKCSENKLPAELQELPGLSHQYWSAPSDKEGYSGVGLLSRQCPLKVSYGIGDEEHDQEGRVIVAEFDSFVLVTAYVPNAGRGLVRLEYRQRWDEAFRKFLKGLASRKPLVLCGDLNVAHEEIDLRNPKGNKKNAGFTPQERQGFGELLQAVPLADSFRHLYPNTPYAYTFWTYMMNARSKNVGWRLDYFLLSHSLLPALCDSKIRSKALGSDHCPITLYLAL
Briefly: APE1 inhibition assay. Type of data set: biochemical. The following applies: read-out: Inhibition of APE1 catalytic activity IC50. As to the method:
as §1, §2
APE1 inhibition assay was performed as previously described. To determine the extent of endonucleolytic cleavage of the abasic residue, the test compounds, diluted in DMSO, were preincubated with recombinant APE1 at a final concentration of 0.05 nM in the reaction buffer [50 mM NaCl, 1 mM HEPES, pH 7.5, 50 μM EDTA, 50 μM dithiothreitol, 10% glycerol (w/v), 7.5 mM MnCl2, 0.1 mg mL‑1 bovine serum albumin, 10 mM 2-mercaptoethanol, 10% DMSO, and 25 mM MOPS, pH 7.2] at 30 °C for 10 min. Following preincubation, 200 nM of the 5′-end ^32P-labeled linear oligonucleotide substrate was added, and incubated for an additional 10 minutes. Reactions were quenched by the addition of an equal volume (16 μL) of loading dye (98% deionized formamide, 10 mM EDTA, 0.025% xylene cyanol, and 0.025% bromophenol blue). An aliquot (5 μL) was electrophoresed on a denaturing 20% polyacrylamide gel (0.09 M tris-borate pH 8.3, 2 mM EDTA, 20% acrylamide, 8 M urea). The gels were dried, exposed in a PhosphorImager cassette and analyzed using a Typhoon 8610 Variable Mode Imager (Amersham Biosciences). Quantification of enzyme inhibition was done using Image Quant 5.2 software. The percent inhibition (% I) was calculated using the following equation: %I = 100 × [1 − (D − C) / (N − C)] where C, N, and D are the fractions of 26-mer substrate converted to 13-mer incision products (or integration products) for DNA alone, DNA plus APE1, and DNA, APE1 plus test compound, respectively. IC50 values were determined by plotting the logarithm of compound concentration as a function of %I to obtain the concentration that produced 50% inhibition. An optimum concentration of APE1 enzyme, at which there is complete conversion of the synthetic abasic-site containing oligonucleotide substrate to its cleaved product without subsequent exonuclease activity, was used in the assay.

The mark [2] stands for this setting: read-out: Inhibition of IN catalytic activity IC50, 3’-Processing.
Setting [3] is: read-out: Inhibition of IN catalytic activity IC50, Strand Transfer.

For `COc1cc(NC(=O)C(=S)NN2C(=O)C(=Cc3cc([N+](=O)[O-])ccc3O)SC2=S)cc(OC)c1OC` [Compound 30, 2-{[5-(2-Hydroxy-5-nitrobenzylidene)-4-oxo-2-thioxo-1,3-thiazolidin-3-yl]amino}-2-thioxo-N-(3,4,5-trimethoxyphenyl)acetamide], the melting point lay within 205 to 206 °C. At HIV-1 IN (setting [2]), the IC50 came to 47 ± 30 µM. Moreover, the IC50 on HIV-1 IN (setting [3]) is above 100 µM. Further, the IC50 in data set [1] was above 100 µM.

Take `CCOc1cccc(C=C2SC(=S)N(NC(=S)C(=O)Nc3cc(OC)c(OC)c(OC)c3)C2=O)c1O` [Compound 31, 2-{[5-(3-Ethoxy-2-hydroxybenzylidene)-4-oxo-2-thioxo-1,3-thiazolidin-3-yl]amino}-2-thioxo-N-(3,4,5-trimethoxyphenyl)acetamide]: the melting point lay within 231 to 232 °C. In addition, the IC50 at HIV-1 IN (setting [2]) is above 100 µM. The IC50 on HIV-1 IN (setting [3]) is above 100 µM. Also, in data set [1], the IC50 was above 100 µM.

In the case of `C=CCc1cccc(C=C2SC(=S)N(NC(=S)C(=O)Nc3cc(OC)c(OC)c(OC)c3)C2=O)c1O` [Compound 32, 2-{[5-(3-Allyl-2-hydroxybenzylidene)-4-oxo-2-thioxo-1,3-thiazolidin-3-yl]amino}-2-thioxo-N-(3,4,5-trimethoxyphenyl)acetamide], the melting point lay in the range of 174 to 175 °C. For the same compound, the IC50 at HIV-1 IN (setting [2]) came to 82 ± 5 µM. In addition, the IC50 at HIV-1 IN (setting [3]) was 83 ± 3 µM. The IC50 in data set [1] is above 100 µM.

`CCN(CC)c1ccc(C=C2SC(=S)N(NC(=S)C(=O)Nc3cc(OC)c(OC)c(OC)c3)C2=O)c(O)c1` [Compound 33, 2-({5-[4-(Diethylamino)-2-hydroxybenzylidene]-4-oxo-2-thioxo-1,3-thiazolidin-3-yl}amino)-2-thioxo-N-(3,4,5-trimethoxyphenyl)acetamide] displayed a melting point of 210 to 211 °C. Besides, the IC50 on HIV-1 IN (setting [2]) is above 100 µM. The IC50 at HIV-1 IN (setting [3]) was above 100 µM. In data set [1], the IC50 is above 100 µM.

`COc1cc(NC(=O)C(=S)NN2C(=O)C(=Cc3cc(N=Nc4ccccc4)ccc3O)SC2=S)cc(OC)c1OC` [Compound 34, 2-[(5-{2-Hydroxy-5-[phenyldiazenyl]benzylidene}-4-oxo-2-thioxo-1,3-thiazolidin-3-yl)amino]-2-thioxo-N-(3,4,5-trimethoxyphenyl)acetamide]: the melting point fell in the range of 149 to 150 °C. Further, at HIV-1 IN (setting [2]), the IC50 came out at 33 ± 19 µM. Further, the IC50 on HIV-1 IN (setting [3]) amounted to 26 ± 14 µM. Moreover, the IC50 in data set [1] is above 100 µM.

Regarding `COc1cc(NC(=O)C(=S)NN2C(=O)/C(=C\c3ccc(O)c(C(=O)O)c3)SC2=S)cc(OC)c1OC` [Compound 35], the melting point fell in the range of 239 to 240 °C. For the same compound, the IC50 at HIV-1 IN (setting [2]) is 45 ± 24 µM. Moreover, the IC50 on HIV-1 IN (setting [3]) was 61 ± 11 µM. For the same compound, the “IN inhibition (in words)” value at HIV-1 IN (highest concentration tested 100 μM) is recorded as “only a moderate effect”. The IC50 in data set [1] is above 100 µM.

Regarding `COc1cc(NC(=O)C(=S)NN2C(=O)C(=Cc3cc(Cl)cc(Cl)c3O)SC2=S)cc(OC)c1OC` [Compound 36, 2-{[5-(3,5-Dichloro-2-hydroxybenzylidene)-4-oxo-2-thioxo-1,3-thiazolidin-3-yl]amino}-2-thioxo-N-(3,4,5-trimethoxyphenyl)acetamide], the melting point is 215 to 216 °C. Moreover, the IC50 on HIV-1 IN (setting [2]) was found to be 46 ± 5 µM. On HIV-1 IN (setting [3]), the IC50 is above 100 µM. The half-maximal inhibitory concentration (IC50) in data set [1] was above 100 µM.

`COc1cc(NC(=O)C(=S)NN2C(=O)C(=Cc3cc(Br)cc(Br)c3O)SC2=S)cc(OC)c1OC` [Compound 37, 2-{[5-(3,5-Dibromo-2-hydroxybenzylidene)-4-oxo-2-thioxo-1,3-thiazolidin-3-yl]amino}-2-thioxo-N-(3,4,5-trimethoxyphenyl)acetamide] registered a melting point of 221 to 222 °C. Moreover, the concentration for half-maximal inhibition (IC50) on HIV-1 IN (setting [2]) came to 33 ± 7 µM. At HIV-1 IN (setting [3]), the IC50 worked out at 35 ± 6 µM. Moreover, the IC50 in data set [1] is above 100 µM.

In the case of `COc1cc(NC(=O)C(=S)NN2C(=O)C(=Cc3cc(I)cc(I)c3O)SC2=S)cc(OC)c1OC` [Compound 39, 2-{[5-(2-Hydroxy-3,5-diiodobenzylidene)-4-oxo-2-thioxo-1,3-thiazolidin-3-yl]amino}-N-(3,4,5-trimethoxyphenyl)-2-thioxoacetamide], the melting point lay within 235 to 236 °C. On HIV-1 IN (IN inhibition, trimethoxy versus p-hydroxyl in ring A), the “decrease in potency relative to 53” value is reported as 10 fold. For the same compound, the concentration for half-maximal inhibition (IC50) at HIV-1 IN (setting [2]) was determined as 47 ± 20 µM. The 50% inhibitory concentration (IC50) at HIV-1 IN (setting [3]) turned out to be 31 ± 16 µM. For the same compound, in data set [1], the IC50 is above 100 µM.

In turn, `O=C(Nc1ccc(O)cc1)C(=S)NN1C(=O)C(=Cc2cc(Cl)ccc2O)SC1=S` [Compound 41, 2-{[5-(5-Chloro-2-hydroxybenzylidene)-4-oxo-2-thioxo-1,3-thiazolidin-3-yl]amino}-N-(4-hydroxy-phenyl)-2-thioxoacetamide] returned a melting point of 220 to 221 °C. Also, at HIV-1 IN (setting [2]), the IC50 is above 100 µM. For the same compound, the IC50 at HIV-1 IN (setting [3]) was found to be 67 µM. Besides, the 50% inhibitory concentration (IC50) in data set [1] was above 100 µM.

In the case of `O=C(Nc1ccc(O)cc1)C(=S)NN1C(=O)C(=Cc2cc(Br)ccc2O)SC1=S` [Compound 42, 2-{[5-(5-Bromo-2-hydroxybenzylidene)-4-oxo-2-thioxo-1,3-thiazolidin-3-yl]amino}-N-(4-hydroxy-phenyl)-2-thioxoacetamide], the melting point was 190 to 191 °C. Besides, the IC50 at HIV-1 IN (setting [2]) is above 100 µM. For the same compound, the IC50 at HIV-1 IN (setting [3]) was above 100 µM. Besides, the IC50 in data set [1] is above 100 µM.

Regarding `O=C(Nc1ccc(O)cc1)C(=S)NN1C(=O)C(=Cc2cccc([N+](=O)[O-])c2O)SC1=S` [Compound 43, 2-{[5-(2-Hydroxy-3-nitrobenzylidene)-4-oxo-2-thioxo-1,3-thiazolidin-3-yl]amino}-N-(4-hydroxy-phenyl)-2-thioxoacetamide], the melting point fell in the range of 179 to 180 °C. Moreover, the IC50 at HIV-1 IN (setting [2]) was above 100 µM. Besides, the concentration for half-maximal inhibition (IC50) at HIV-1 IN (setting [3]) amounted to 88 µM. Moreover, in data set [1], the IC50 is above 100 µM.
